Experiments:
Assay type in all cases: in vivo
[1] = test system: diamondback moth (Plutella xylostella); test: Insecticidal effect on diamondback moth (Test Example 1); conditions: for Insecticidal effect (Test Example 1), judged from mortality / Insecticidal effect, Test Example 1: diamondback moth; for Insecticidal effect (Test Example 1), judged from mortality: judged by the criterion of Test Example 1; for Insecticidal effect on diamondback moth (Test Example 1), judged grade: mortality judged according to the criterion shown in Test Example 1
Summary of the method: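 Chinese cabbage seedlings carrying eggs laid by released adult moths were immersed in treatment, air-dried and held at 25° C. Hatched insects were counted six days after immersion, and mortality was calculated and scored against a fixed criterion. Three replicate groups of 10 insects were used.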

[2] = test system: common cutworm (Spodoptera Litura); test: Insecticidal effect on common cutworm (Test Example 2); conditions: 500 ppm, 25° C.; for Insecticidal effect (Test Example 2), judged from mortality / Insecticidal effect on common cutworm (Test Example 2), judged grade: cabbage leaf dip; for Insecticidal effect (Test Example 2), judged from mortality: 8 days after inoculation; for Insecticidal effect, Test Example 2: cabbage leaf immersed; for Insecticidal effect, Test Example 2 / Insecticidal effect on common cutworm (Test Example 2), judged grade: eight days after inoculation; for Insecticidal effect on common cutworm (Test Example 2), judged grade: second-instar larvae
Summary of the method: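 2nd-instar larvae on air-dried treatment, closed dish, 25° C; dead/alive counted at day 8. Mortality calculated, graded by criterion. 3 × 10 insects.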

[3] = test system: rice leafroller (Cnaphalocrocis medinalis); test: Insecticidal effect on rice leafroller (Test Example 3); conditions: 500 ppm, 25° C., humidity 70%; for Insecticidal effect (Test Example 3), judged from mortality: 4 days after inoculation; for Insecticidal effect, Test Example 3: rice lamina immersed
Summary of the method: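 Groups of 10 third-instar larvae, in triplicate, are placed on air-dried lamina resting on wet filter paper. Incubation runs four days at 25° C with 70% humidity before survivors and dead are tallied.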

[4] = second-instar larvae of common cutworm
[5] = rice lamina dip, third-instar larvae of rice leafroller
[6] = third-instar larvae of rice leafroller, four days after inoculation
[7] = common cutworm second-instar larvae
[8] = mortality judged by criterion of Test Example 1
[9] = judged by the mortality criterion of Test Example 1

| SMILES | Insecticidal effect (Test Example 1), judged from mortality [1] | Insecticidal effect (Test Example 2), judged from mortality [2, 4] | Insecticidal effect on diamondback moth (Test Example 1), judged grade [1] | Insecticidal effect on common cutworm (Test Example 2), judged grade [2] | other results |
| --- | --- | --- | --- | --- | --- |
| CCN(CC)C(=O)c1c(Cl)cccc1C(=O)Nc1ccc(C(F)(C(F)(F)F)C(F)(F)F)cc1C [compound 1537] | A (100) | A (100) | – | – | Insecticidal effect (Test Example 3), judged from mortality [3, 5]: A (100) |
| Cc1cc(C(F)(F)C(F)(F)F)ccc1NC(=O)c1cccc(Cl)c1C(=O)NC(C)(C)C#Cc1c(Cl)cccc1Cl [compound 1586] | A (100) | C (89-80) | – | – | Insecticidal effect (Test Example 3), judged from mortality [3, 5]: A (100) |
| Cc1cc(OC(F)(F)C(F)(Cl)Cl)ccc1NC(=O)c1c(Cl)cccc1C(=O)NC(C)C [compound 228] | – | – | – | – | Insecticidal effect, Test Example 2 [2, 4]: B (99-90); Insecticidal effect, Test Example 3 [3, 6]: A (100) |
| Cc1cc(C(F)(F)C(F)(F)F)c(C)cc1NC(=O)c1cccc(I)c1C(=O)NC(C)(C)C [compound 1656] | – | A (100) | – | – | Insecticidal effect (Test Example 3), judged from mortality [3, 5]: A (100) |
| Cc1ccc(NC(=O)c2cccc(Br)c2C(=O)NC(C)C)c(C)c1 [compound 264] | – | – | – | – | Insecticidal effect, Test Example 2 [2, 4]: D (79-50); Insecticidal effect, Test Example 3 [3, 6]: A (100) |
| Cc1cc(OC(F)F)ccc1NC(=O)c1c(Cl)cccc1C(=O)NCc1ccccc1Cl [compound 1424] | – | – | – | – | Insecticidal effect, Test Example 2 [2, 7]: A (100); Insecticidal effect, Test Example 3 ([3]; rice leafroller third-instar larvae, four days after inoculation): A (100) |
| CC(C)NC(=O)c1cccc(Cl)c1C(=O)Nc1ccc(C(F)(C(F)(F)F)C(F)(F)F)cc1Cl [compound 231] | – | – | – | – | Insecticidal effect, Test Example 2 [2, 4]: B (99-90); Insecticidal effect, Test Example 3 [3, 6]: A (100) |
| CSc1ccc(NC(=O)c2cccc([N+](=O)[O-])c2C(=O)NC(C)C)c(C)c1 [compound 719] | – | – | A (100) | D (79-50) | – |
| CSc1cc(C(F)(C(F)(F)F)C(F)(F)F)ccc1NC(=O)c1cccc(I)c1C(=O)NC(C)C [compound 1671] | A (100) | A (100) | – | – | – |
| CC(C)NC(=O)c1c(C(=O)Nc2cccc(Cl)c2Cl)cccc1[N+](=O)[O-] [compound 584] | – | – | A (100) | D (79-50) | – |
| Cc1cc(OC(F)(F)F)ccc1NC(=O)c1cccc(I)c1C(=O)NC(C)(C)CBr [compound 1605] | A (100) | C (89-80) | – | – | – |
| COc1ccc(NC(=O)c2c(I)cccc2C(=O)NC(C)C)c(C)c1C [compound 451] | – | – | A (100) | A (100) | – |
| Cc1cc(Cl)ccc1NC(=O)c1c(Cl)cccc1C(=O)NC(C)(C)C [compound 938] | – | – | A (100) | A (100) | – |
| Cc1cc2c(cc1NC(=O)c1cccc(I)c1C(=O)NC(C)C)OC(F)(F)C(F)O2 (racemic) [compound 1598] | A (100) | A (100) | – | – | – |
| Cc1cc(OC(F)(F)C(F)(Cl)Cl)ccc1NC(=O)c1c(I)cccc1C(=O)NC(C)C [compound 445] | – | – | – | B (99-90) | Insecticidal effect on rice leafroller (Test Example 3), judged grade ([3]; rice lamina dip, third-instar larvae, four days after inoculation): A (100) |
| Cc1ccc(Cl)cc1NC(=O)c1cccc([N+](=O)[O-])c1C(=O)NC1CCCC1 [compound 858] | – | – | C (89-80) | A (100) | – |
| CC(C)NC(=O)c1c(I)cccc1C(=O)Nc1cc2c(cc1F)OC(F)(F)O2 [compound 1595] | A (100) | A (100) | – | – | – |
| Cc1cc(C(F)(F)C(F)(F)F)ccc1N(C)C(=O)c1cccc(Cl)c1C(=O)NC(C)c1ccccc1 (stereo not shown) [compound 1554] | A (100) | A (100) | – | – | – |
| CCN(CC)C(=O)c1c(OC(F)(F)F)cccc1C(=O)Nc1ccc(OC(F)(F)F)cc1C [compound 1235] | – | – | – | – | Insecticidal effect, Test Example 1 [1, 8]: A (100); Insecticidal effect, Test Example 2 [2, 7]: D (79-50) |

| SMILES | Insecticidal effect (Test Example 1), judged from mortality [1] | Insecticidal effect (Test Example 2), judged from mortality [2, 4] | Insecticidal effect on diamondback moth (Test Example 1), judged grade [1] | Insecticidal effect on common cutworm (Test Example 2), judged grade [2] | other results |
| --- | --- | --- | --- | --- | --- |
| CSc1cc(C(F)(F)C(F)(F)F)ccc1NC(=O)c1cccc(I)c1C(=O)NC(C)C [compound 1700] | A (100) | D (79-50) | – | – | – |
| CC(C)NC(=O)c1c(C(=O)Nc2c(F)c(F)c(F)c(F)c2F)cccc1[N+](=O)[O-] [compound 646] | – | – | A (100) | D (79-50) | – |
| Cc1c(NC(=O)c2cccc(I)c2C(=O)NC(C)(C)C)ccc(C(F)(C(F)(F)F)C(F)(F)F)c1C [compound 1690] | A (100) | A (100) | – | – | – |
| Cc1ccc(NC(=O)c2c(I)cccc2C(=O)NC(C)C)c(C)c1Cl [compound 429] | – | – | – | – | Insecticidal effect, Test Example 1 [1, 9]: A (100); Insecticidal effect, Test Example 2 [2, 4]: D (79-50) |
| CC(C)NC(=O)c1c(C(=O)Nc2ccc(OC(F)F)cc2C(F)(F)F)cccc1[N+](=O)[O-] [compound 692] | – | – | A (100) | D (79-50) | – |
| CSc1cc(C(F)(C(F)(F)F)C(F)(F)F)ccc1NC(=O)c1cccc(I)c1C(=O)NC(C)(C)C [compound 1672] | A (100) | A (100) | – | – | – |
| O=C(Nc1ccc(C(F)(F)C(F)(F)F)cc1F)c1cccc(Cl)c1C(=O)NCc1ccccc1 [compound 1486] | A (100) | A (100) | – | – | – |
| CC(C)NC(=O)c1c(I)cccc1C(=O)Nc1ccc(C(F)(F)C(F)(F)F)c(Cl)c1 [compound 1608] | A (100) | A (100) | – | – | – |
| Cc1cc(OC(F)(F)F)ccc1NC(=O)c1cccc(OC(F)(F)F)c1C(=O)NC(C)(C)C [compound 1234] | – | – | – | – | Insecticidal effect, Test Example 1 [1, 8]: A (100); Insecticidal effect, Test Example 2 [2, 7]: A (100) |
| Cc1ccc(Cl)cc1NC(=O)c1cccc([N+](=O)[O-])c1C(=O)NCC(C)C [compound 831] | – | – | D (79-50) | D (79-50) | – |
| Cc1ccc(Cl)cc1NC(=O)c1ccccc1C(=O)NC(C)(C)C [compound 841] | – | – | A (100) | D (79-50) | – |
| Cc1cc(OC(F)F)c(Cl)cc1NC(=O)c1c(F)cccc1C(=O)NC(C)C [compound 571] | – | – | A (100) | C (89-80) | – |
| CC(C)NC(=O)c1c(I)cccc1C(=O)Nc1ccc(I)cc1C(C)C [compound 965] | – | – | – | – | Insecticidal effect, Test Example 1 [1, 8]: A (100); Insecticidal effect, Test Example 2 [2, 7]: C (89-80) |
| CC(C)NC(=O)c1c(C(=O)Nc2ccc(Cl)cc2Cl)cccc1[N+](=O)[O-] [compound 633] | – | – | A (100) | D (79-50) | – |
| Cc1c(NC(=O)c2cccc(I)c2C(=O)NC(C)C)ccc(C(F)(C(F)(F)F)C(F)(F)F)c1C [compound 1689] | A (100) | A (100) | – | – | – |
| CCN(CC)C(=O)c1c(I)cccc1C(=O)Nc1ccc(-c2ccc(C(F)(F)F)cc2)cc1C [compound 1619] | A (100) | A (100) | – | – | – |
| Cc1cc(OC(F)(F)C(F)OC(F)(F)F)ccc1NC(=O)c1c(F)cccc1C(=O)NC(C)C (stereo not shown) [compound 570] | – | – | A (100) | A (100) | – |
| Cc1cc(I)ccc1NC(=O)c1c(I)cccc1C(=O)NC(C)C [compound 431] | – | – | – | – | Insecticidal effect, Test Example 1 [1, 9]: A (100); Insecticidal effect, Test Example 2 [2, 4]: A (100) |

From patent US6362369B1, “Phthalic acid diamide derivatives fluorine-containing aniline compounds as starting material, agricultural and horticultural insecticides, and a method for application of the insecticides” (Nihon Nohyaku Co., Ltd., priority 1997, dated 2002)
